Experimental data published in the NIST ThermoML archive (doi:10.1021/je200457q).

Tests used:
[1] = excess molar enthalpy (molar enthalpy of mixing); xn = mol fraction of the nth substance listed; conditions: 101 kPa, Liquid, Flow calorimetry
[2] = 298.15 K; 101.33 kPa; Liquid; Vibrating tube method

C=CC(C)(O)CCC=C(C)C (configuration not stated) [3,7-dimethyl-1,6-octadien-3-ol] + CCCCO
excess molar enthalpy [kcal/mol], [1]
Conditions	283.15 K	298.15 K	313.15 K	328.15 K
x1 = 0.042	-0.00311	-0.00717	-0.00717	-0.00526
x1 = 0.085	-0.00502	-0.0143	-0.0158	-0.022
x1 = 0.174	-0.00526	-0.0227	-0.0349	-0.0526
x1 = 0.265	-0.00287	-0.0241	-0.0466	-0.0724
x1 = 0.359	-0.000239	-0.0217	-0.0514	-0.082
x1 = 0.457	0.00215	-0.0182	-0.0509	-0.0837
x1 = 0.559	0.00574	-0.0136	-0.0447	-0.0779
x1 = 0.661	0.00956	-0.00669	-0.0351	-0.0624
x1 = 0.771	0.0136	0.000717	-0.022	-0.044
x1 = 0.884	0.0141	0.00621	-0.00741	-0.021
x1 = 0.943	0.0105	0.00526	-0.00191	-0.00884

CCO [ethanol]
Conditions	mass density [kg/m3]
[2]	785.46

C=CC(C)(O)CCC=C(C)C (configuration not stated) [3,7-dimethyl-1,6-octadien-3-ol]
Conditions	mass density [kg/m3]
[2]	857

CCCO [propan-1-ol]
Conditions	mass density [kg/m3]
[2]	799.56

CC(C)O [propan-2-ol]
Conditions	mass density [kg/m3]
[2]	781.23

CCCCO [butan-1-ol]
Conditions	mass density [kg/m3]
[2]	805.71

C=CC(C)(O)CCC=C(C)C (configuration not stated) [3,7-dimethyl-1,6-octadien-3-ol] + CC(C)O
excess molar enthalpy [kcal/mol], [1]
Conditions	283.15 K	298.15 K	313.15 K	328.15 K
x1 = 0.024	-0.00789	-0.00741	-0.00574	-0.00191
x1 = 0.048	-0.011	-0.0117	-0.00908	-0.00239
x1 = 0.097	-0.0141	-0.0148	-0.0115	-0.000717
x1 = 0.195	-0.0174	-0.0174	-0.0108	0.00621
x1 = 0.292	-0.0186	-0.0172	-0.00837	0.0131
x1 = 0.392	-0.0196	-0.0163	-0.0055	0.0184
x1 = 0.49	-0.0196	-0.0134	-0.00167	0.0215
x1 = 0.592	-0.0174	-0.00884	0.00191	0.022
x1 = 0.693	-0.012	-0.00287	0.00478	0.0184
x1 = 0.796	-0.00454	0.00143	0.00454	0.0131
x1 = 0.894	0.000717	0.00215	0.00167	0.00574
x1 = 0.948	0.000478	0.000717	0.000717	0.00263
